# US5571804A, “Cephalosporin antibiotics” (priority 1993, dated 1996)
# What was measured:
# [1] = system: Enterobacter cloacae IND + VE 1194E; assay: MIC, two-fold agar dilution; type: cell-based; settings: Muller-Hinton agar, 37° C., 20 hours
# [2] = system: E. coli TEM5 3739E; assay: MIC, two-fold agar dilution; type: cell-based; settings: Muller-Hinton agar, 37° C., 20 hours
# [3] = system: Acinetobacter calcoaceticus 15473A; assay: MIC, two-fold agar dilution; type: cell-based; settings: Muller-Hinton agar, 37° C., 20 hours
# [4] = system: E. coli 3190Y; assay: MIC, two-fold agar dilution; type: cell-based; settings: Muller-Hinton agar, 37° C., 20 hours
# [5] = system: Enterobacter cloacae P99; assay: MIC, two-fold agar dilution; type: cell-based; settings: Muller-Hinton agar, 37° C., 20 hours
# [6] = system: Klebsiella aerogenes SHV-1 1976E; assay: MIC, two-fold agar dilution; type: cell-based; settings: Muller-Hinton agar, 37° C., 20 hours
# [7] = system: E. coli TEM1 1193E; assay: MIC, two-fold agar dilution; type: cell-based; settings: Muller-Hinton agar, 37° C., 20 hours
# [8] = system: E. coli TEM3 3455E; assay: MIC, two-fold agar dilution; type: cell-based; settings: Muller-Hinton agar, 37° C., 20 hours
# [9] = system: Pseudomonas aeruginosa 10145; assay: MIC, two-fold agar dilution; type: cell-based; settings: Muller-Hinton agar, 37° C., 20 hours
# [10] = system: Pseudomonas aeruginosa 1912E; assay: MIC, two-fold agar dilution; type: cell-based; settings: Muller-Hinton agar, 37° C., 20 hours
# [11] = system: Pseudomonas aeruginosa 6065; assay: MIC, two-fold agar dilution; type: cell-based; settings: Muller-Hinton agar, 37° C., 20 hours
# [12] = system: E. coli TEM9 2639E; assay: MIC, two-fold agar dilution; type: cell-based; settings: Muller-Hinton agar, 37° C., 20 hours
# [13] = pharmakinetic variables in SD rats; settings: rat, in vivo, iv, 20 mg/kg
# Protocol: The pharmakinetic variables were determined using SD rats (.male.) of a body weight of 230±10g as follows. The "S" compound of each of the Examples was injected to femoral vein of 4-5 rats by 20mg/Kg and then blood was collected from femoral artery in 1, 2.5, 5, 10, 20, 40, 60 and 120 min.
# [14] = system: Staphylococcus aureus giorgio; assay: MIC, two-fold agar dilution; type: cell-based; settings: Muller-Hinton agar, 37° C., 20 hours
# [15] = system: Staphylococcus aureus 6538P; assay: MIC, two-fold agar dilution; type: cell-based; settings: Muller-Hinton agar, 37° C., 20 hours
# [16] = system: Klebsiella aerogenes K1 + 1082E; assay: MIC, two-fold agar dilution; type: cell-based; settings: Muller-Hinton agar, 37° C., 20 hours
# [17] = system: E. coli 851E; assay: MIC, two-fold agar dilution; type: cell-based; settings: Muller-Hinton agar, 37° C., 20 hours
# [18] = system: Citrobacter diversus 2046E; assay: MIC, two-fold agar dilution; type: cell-based; settings: Muller-Hinton agar, 37° C., 20 hours
# [19] = system: Serratia marcescens 1826E; assay: MIC, two-fold agar dilution; type: cell-based; settings: Muller-Hinton agar, 37° C., 20 hours
# [20] = system: Staphylococcus aureus 241; assay: MIC, two-fold agar dilution; type: cell-based; settings: Muller-Hinton agar, 37° C., 20 hours
# [21] = system: Staphylococcus aureus 77; assay: MIC, two-fold agar dilution; type: cell-based; settings: Muller-Hinton agar, 37° C., 20 hours
# [22] = system: Salmonella typhimurium 14028A; assay: MIC, two-fold agar dilution; type: cell-based; settings: Muller-Hinton agar, 37° C., 20 hours
# [23] = system: E. coli TEM7 3457E; assay: MIC, two-fold agar dilution; type: cell-based; settings: Muller-Hinton agar, 37° C., 20 hours
# [24] = system: Streptococcus laecalis 29212A; assay: MIC, two-fold agar dilution; type: cell-based; settings: Muller-Hinton agar, 37° C., 20 hours
# [25] = system: E. coli 10536; assay: MIC, two-fold agar dilution; type: cell-based; settings: Muller-Hinton agar, 37° C., 20 hours
# [26] = system: Proteus vularis 6059A; assay: MIC, two-fold agar dilution; type: cell-based; settings: Muller-Hinton agar, 37° C., 20 hours
# [27] = system: Staphylococcus epidermidis 887E; assay: MIC, two-fold agar dilution; type: cell-based; settings: Muller-Hinton agar, 37° C., 20 hours
smiles,measurement,setting,value
"Nc1cc(SCC2=C(C(=O)O)N3C(=O)[C@@H](NC(=O)/C(=N\O[C@H](C(=O)O)c4ccc(O)c(O)c4)c4csc(N)n4)[C@H]3SC2)ncn1 [Compound I-7S, 7[-(Z)-2-(aminothiazol-4-yl)-2-(α-carboxy-3,4-dihydroxybenzyloxyimino)acetamido]-3-(6-amino-pyrimidine-4-yl)thiomethyl-3cephem-4-carboxylate]",minimal inhibitory concentration (MIC),[1],2
same,minimal inhibitory concentration (MIC),[2],0.063
same,minimal inhibitory concentration (MIC),[3],0.13
same,minimal inhibitory concentration (MIC),[4],0.031
same,minimal inhibitory concentration (MIC),[5],8
same,minimal inhibitory concentration (MIC),[6],0.25
same,minimal inhibitory concentration (MIC),[7],0.063
same,minimal inhibitory concentration (MIC),[8],0.016
same,minimal inhibitory concentration (MIC),[9],0.25
same,minimal inhibitory concentration (MIC),[10],0.25
same,minimal inhibitory concentration (MIC),[11],0.5
same,minimal inhibitory concentration (MIC),[12],0.13
same,AUC at 2 h,[13],60000 ng·h/mL
same,half-life,[13],59 min
same,minimal inhibitory concentration (MIC),[14],1
same,minimal inhibitory concentration (MIC),[15],2
same,minimal inhibitory concentration (MIC),[16],0.063
same,minimal inhibitory concentration (MIC),[17],0.063
same,minimal inhibitory concentration (MIC),[18],0.063
same,minimal inhibitory concentration (MIC),[19],0.25
same,minimal inhibitory concentration (MIC),[20],64
same,minimal inhibitory concentration (MIC),[21],4
same,minimal inhibitory concentration (MIC),[22],0.016
same,minimal inhibitory concentration (MIC),[23],0.016
same,minimal inhibitory concentration (MIC),[24],2
same,minimal inhibitory concentration (MIC),[25],≤ 0.008
same,minimal inhibitory concentration (MIC),[26],0.25
same,minimal inhibitory concentration (MIC),[27],32
